According to BigSolDB 2.1:

O=[N+]([O-])c1cccc2cccc([N+](=O)[O-])c12
solubility (mole fraction)
Conditions | in acetone | in acetonitrile | in chloroform | in ethanol | in ethyl acetate | in isopropanol | in methanol | in n-butanol | in toluene
273.15 K | 0.0103 | 0.00295 | 0.00311 | 0.000242 | 0.00414 | 8.97e-05 | 0.000293 | 0.000155 | 0.00119
275.65 K | 0.0113 | 0.00331 | 0.0035 | 0.000267 | 0.00446 | 0.000103 | 0.000327 | 0.000178 | 0.00125
278.15 K | 0.0119 | 0.0039 | 0.00382 | 0.000294 | 0.00471 | 0.000126 | 0.000356 | 0.00021 | 0.00138
280.65 K | 0.013 | 0.00465 | 0.0042 | 0.000323 | 0.00522 | 0.000146 | 0.000398 | 0.000237 | 0.00157
283.15 K | 0.014 | 0.00528 | 0.00473 | 0.000351 | 0.00551 | 0.000173 | 0.000429 | 0.000272 | 0.00171
285.65 K | 0.0152 | 0.00597 | 0.00508 | 0.000385 | 0.00607 | 0.000198 | 0.000485 | 0.000314 | 0.00188
288.15 K | 0.0163 | 0.00661 | 0.00561 | 0.000427 | 0.00659 | 0.000224 | 0.000536 | 0.000356 | 0.00205
291.15 K | 0.0177 | 0.00761 | 0.00601 | 0.000484 | 0.0072 | 0.000265 | 0.000599 | 0.000411 | 0.00235
293.15 K | 0.0189 | 0.00821 | – | 0.000529 | 0.00765 | 0.000296 | 0.000641 | 0.000449 | 0.00255
295.65 K | 0.0205 | 0.00921 | 0.00732 | 0.000584 | 0.00822 | 0.000334 | 0.000696 | 0.000504 | 0.0028
298.15 K | 0.0223 | 0.0102 | 0.00787 | 0.000646 | – | 0.000382 | 0.000758 | – | 0.00309
300.65 K | 0.0243 | 0.0112 | 0.0084 | 0.00071 | 0.00947 | 0.00043 | 0.000821 | 0.000623 | 0.00344
303.15 K | 0.0261 | 0.012 | 0.00923 | 0.000789 | 0.0102 | 0.000482 | 0.000891 | 0.00069 | 0.00382
305.65 K | 0.028 | 0.013 | 0.00983 | 0.000878 | 0.011 | 0.000536 | 0.000971 | 0.000759 | 0.00427
308.15 K | 0.0306 | 0.014 | 0.0107 | 0.000994 | 0.0119 | 0.000605 | 0.00106 | 0.000832 | 0.00468
